Consider 16 compounds from ChEMBL document CHEMBL1165948, “The scope of thallium nitrate oxidative cyclization of chalcones; synthesis and evaluation of isoflavone and aurone analogs for their inhibitory activity against interleukin-5” (Bioorg Med Chem, 2010).

The assay concerns the target T1, Interleukin-5 (Mus musculus) (UniProt P04401).
T1 sequence (whole entry): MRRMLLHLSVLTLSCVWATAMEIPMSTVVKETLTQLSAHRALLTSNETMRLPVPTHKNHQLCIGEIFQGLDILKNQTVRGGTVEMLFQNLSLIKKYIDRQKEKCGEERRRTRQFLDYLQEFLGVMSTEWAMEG
The assay can be described thus: Inhibition of IL5-mediated proliferation of mouse Y16 cells at 50 uM by WST1 assay. Format: cell-based.

With `O=Cc1ccc(/C=C2\Oc3cccc(OCC4CCCCC4)c3C2=O)cc1`, the inhibition was 8%.
`CCc1ccc(-c2coc3cccc(OCC4CCCCC4)c3c2=O)cc1` had an inhibition of 9.7%.
`O=c1c(-c2ccc(O)cc2)coc2cccc(OCC3CCCCC3)c12` came in with an inhibition of 91.7%.
`CCc1ccc(/C=C2\Oc3cccc(OCC4CCCCC4)c3C2=O)cc1` registered an inhibition of 3.8%.
For `O=C1/C(=C/c2ccc([N+](=O)[O-])cc2)Oc2cccc(OCC3CCCCC3)c21` the value was 5.7%; for `O=C1/C(=C/c2ccccc2)Oc2cccc(OCC3CCCCC3)c21`, 3.1%.
For `COc1ccc(-c2coc3cccc(OCC4CCCCC4)c3c2=O)c(OC)c1` the value was 15.6%.
Next, `COC(=O)c1ccc(/C=C2\Oc3cccc(OCC4CCCCC4)c3C2=O)cc1`: 3.5%.
`COCOc1ccc(-c2coc3cccc(OCC4CCCCC4)c3c2=O)cc1` gave an inhibition of 10.5%.
Next, `COc1cc(-c2coc3cccc(OCC4CCCCC4)c3c2=O)cc(OC)c1OC`: above 100%; `COc1cc(-c2coc3cccc(OCC4CCCCC4)c3c2=O)ccc1OCc1ccccc1`: 99.8%.
For `COc1ccc(-c2coc3cccc(OCC4CCCCC4)c3c2=O)cc1` the value was 15.4%; for `COc1cc(-c2coc3cccc(OCC4CCCCC4)c3c2=O)ccc1O`, 15.7%.
Regarding `O=C1/C(=C/c2ccc(Cl)cc2)Oc2cccc(OCC3CCCCC3)c21`, the inhibition came to 12.2%.
With `O=c1c(-c2ccc(O[C@@H]3O[C@H](CO)[C@@H](O)[C@H](O)[C@H]3O)cc2)coc2cc(O)cc(O)c12`, the inhibition was found to be 92.1%.
For `COc1ccc(-c2coc3cccc(OCC4CCCCC4)c3c2=O)cc1OC` the value was 30.6%.
